{
  "source": "patent US20220339135A1",
  "about": "“COMPOSITIONS AND METHODS FOR MODULATING AN INFLAMMATORY RESPONSE” (Enzychem Lifesciences Corporation, priority 2019, published 2022)",
  "key": {"[1]": {"system": "STZ-induced hepatic steatosis", "assay": "STZ-induced mice model (lipid uptake, hepatic steatosis)", "format": "in vivo", "details": "for body weight versus STZ treated mice / hepatic steatosis / liver damage (histology): co-treated 3 days", "excerpt": "Eight-week-old Balb/c male mice were purchased from Koatech Co. (Pyeongtaek, Republic of Korea) and maintained in for 7 days in order to adapt to the environment. The experimental protocol was approved by the Animal Care and Use Committee of Korea Research Institute of Bioscience and Biotechnology Institution (KRIBB-AEC-17146) and performed in accordance with the National Institutes of Health Guidelines for the care and use of laboratory animals and with the Korean national laws for animal welfare. The mice were randomized initially into two experimental groups as follows: Non-treated group as a control; STZ treated group. STZ treated groups received an intraperitoneal injection of 200 mg/kg BW STZ, which was dissolved in citrate buffer (pH 4.5), while the animals belonging to the control group received vehicle injection. The next day following STZ administration, the induction of diabetes in all STZ-treated mice was confirmed the glucose level in blood by a glucometer (ACCU-CHEK, Roche diagnostics Inc., Seoul, Korea). All mice with blood glucose levels higher than 200 mg/dL in fasting state were considered acute diabetes. After the confirmation of the induction of diabetes, the mice of the experimental group were further randomized into three groups: STZ alone treated group; high dose of PLAG treated group; a low dose of PLAG treated group. PLAG was injected into mice for 3 days. Control and STZ alone treated groups were administrated orally to mice with the same PBS for 3 days. Following sacrifice, LPL activity was measured in plasma using a quantitative LPL activity assay kit (Cell Biolabs, Inc, San Diego, Calif.). Diluted samples and standards were loaded to the fluorescence microtiter plate, and LPL fluorometric substrate was added. After 30 minutes, the reaction stopped by stopping the solution. After 15 minutes, the sample fluorescence measured by a fluorescence microplate reader. The relative amounts of Apolipoprotein B48 (ApoB48) of portal vein plasma were evaluated by western blot analysis. […] The protein extracts were immunoblotted with the ApoB48 antibody (Abcam, MA, USA). Eight-week-old Balb/c male mice were purchased from Koatech Co. (Pyeongtaek, Republic of Korea) and maintained in for 7 days in order to adapt to the environment. The experimental protocol was approved by the Animal Care and Use Committee of Korea Research Institute of Bioscience and Biotechnology Institution (KRIBB-AEC-17146) and performed in accordance with the National Institutes of Health Guidelines for the care and use of laboratory animals and with the Korean national laws for animal welfare. The mice were randomized initially into 2 experimental groups as follows: Non-treated group as a control; STZ treated group. STZ treated groups received an intraperitoneal injection of 200 mg/kg BW STZ, which was dissolved in citrate buffer (pH 4.5), while the animals belonging to the control group received vehicle injection. The next day following STZ administration, the induction of diabetes in all STZ-treated mice was confirmed the glucose level in blood by a glucometer (ACCU-CHEK, Roche diagnostics Inc., Seoul, Korea). All mice with blood glucose levels higher than 200 mg/dL in fasting state were considered acute diabetes. After the confirmation of the induction of diabetes, the mice of the experimental group were further randomized into three groups: STZ alone treated group; high dose of PLAG treated group; a low dose of PLAG treated group. One day after STZ injection, mice were orally injected with PLAG for 3 days (FIG. 31A). The dosage and preparation of PLAG were determined according to previous reports. Control and STZ alone treated groups were administrated orally with the same PBS for 3 days. The experiments were carried out according to the methods mentioned above. […] Total RNA was isolated from the muscle of individual mice using TRIzol reagent (Favorgen Biotech, Taiwan). […]"}, "[2]": {"system": "Pseudomonas aeruginosa (PAK) in BALF", "assay": "PAK infection of mice, CFU determination in BALF", "format": "in vivo", "details": "PAK-induced pneumonia mice, BALF 2 hours after infection", "description": "Pseudomonas aeruginosa (PAK) was grown overnight in LB broth at 37° C. with agitation, and then harvested by centrifugation at 13,000×g for 2 min. The pellet was diluted to yield 1×10^5 colony-forming unit (CFU) per 20 μL of phosphate-buffered saline (PBS) as determined by the optical density at 600 nm. The diluted bacteria were administered to BALB/c mice by intranasal injections. Bronchoalveolar lavage fluid (BALF) samples were then collected 2 hours after infection and serially diluted 1:1,000-1:10,000 with PBS and incubated overnight at 37° C. on LB agar plates. The number of viable bacteria in BALF samples were determined by counting the numbers of colonies formed on the plates."}, "PAK in THP-1 cells": {"system": "PAK in THP-1 cells", "assay": "In vitro phagocytosis of PAK, THP-1 cells", "format": "cell-based, human", "details": "1 hour after infection", "description": "For CFU counting-based phagocytosis and bacterial killing assay, PAK was cultured at 37° C. overnight with continuous shaking and was resuspended in PBS. The BMDMs or THP-1 cells were incubated with PAK (MOI, 50) for different time intervals at 37° C. The cells were further cultured in the medium containing 10 μg/ml gentamycin for 30 minutes and then were lysed by 0.5% SDS. The diluted aliquots were spread on LB agar plates, and CFU was counted after incubation of the plates overnight at 37° C."}},
  "note": "Entries after “also recorded” stand apart in the source; their conditions may differ.",
  "data": [
    {"smiles": "CCCCC/C=C\\C/C=C\\CCCCCCCC(=O)OC(COC(C)=O)COC(=O)CCCCCCCCCCCCCCC", "note": "(racemic) [PLAG, 1-palmitoyl-2-linoleoyl-3-acetylglycerol]", "values": [
      {"measurement": "STZ-induced empty fat vacuoles in liver (H&E)", "setting": "[1]; 250 mg/kg vs 50 mg/kg", "value": "decreased STZ-induced empty fat vacuoles more effectively than 50 mg/kg"},
      {"measurement": "plasma LPL activity", "setting": "[1]; STZ 200 mg/kg, PLAG 3 days", "value": "recovered"},
      {"measurement": "muscle TG content", "setting": "[1]; STZ/PLAG treated group", "value": "recovered"},
      {"measurement": "body weight versus STZ treated mice", "setting": "[1]", "value": "less body weight loss"},
      {"measurement": "hepatic steatosis / liver damage (histology)", "setting": "[1]", "value": "attenuated"},
      {"measurement": "ApoB48 level in portal vein blood", "setting": "[1]; dose-dependent", "value": "markedly reduced"},
      {"measurement": "bacterial clearance of PAK in BALF", "setting": "[2]", "value": "showed the bacterial clearance activity; also recorded: effectively eliminated"},
      {"measurement": "phagocytosis of PAK by THP-1 cells", "setting": "PAK in THP-1 cells", "value": "advanced phagocytosis"}
    ]},
    {"smiles": "CCCCC/C=C\\C/C=C\\CCCCCCCC(=O)OC(CO)COC(=O)CCCCCCCCCCCCCCC", "note": "(stereo not drawn) [PLH, palmitic linoleic hydroxyl glycerol, reference compound]", "values": [
      {"measurement": "body weight versus STZ treated mice", "setting": "[1]", "value": "no difference"},
      {"measurement": "hepatic steatosis / liver damage (histology)", "setting": "[1]", "value": "not altered"},
      {"measurement": "bacterial clearance of PAK in BALF", "setting": "[2]", "value": "didn't; also recorded: did not"},
      {"measurement": "phagocytosis of PAK by THP-1 cells", "setting": "PAK in THP-1 cells", "value": "little effect"}
    ]}
  ]
}
